This is an account of results in patent publication US20090203585A1, “CAPREOMYCIN DERIVATIVES AND THEIR USE AS ANTIBACTERIALS” (priority 2006, published 2009).

The test system of assay [1] is MRSA (Methicillin resistant Staphylococcus aureus, ATCC33591). The assay can be described thus: MIC determination in MRSA. Type of assay: cell-based. As for the experimental part:
Cation Adjusted Mueller Hinton Broth (Teknova #M5860); MRSA (Methicillin resistant Staphylococcus aureus, ATCC33591). Test compounds: all compounds were dissolved in PBS at 10 mg/mL and stored at −20° C.
The method used for determination of MIC's follows the procedure described by the Clinical Laboratory Standards Institute (CLSI). A standardized inoculum of MRSA was prepared per CLSI methods yielding a final cell concentration of 5×10 (5) CFU/mL. 10× compound dilutions were prepared by performing 2 fold serial dilutions in Cation Adjusted Mueller Hinton Broth. The starting and ending concentrations were 640 μg/mL and 1.25 μg/mL, respectively for final assay concentrations of 64 µg/mL and 0.125 μg/mL. 10 μL of the 10× compound dilutions were added to 90 μL of the MRSA cell suspension in microplate wells. Plates were incubated in a 35° C. incubator for approximately 20 hours.

The next assay relates to Clostridium difficile. The assay can be described thus: Activity against Clostridium difficile. Type of assay: cell-based. Particulars: relative to corresponding capreomycin IB phenyl urea analog.
The next assay deals with mycobacteria. Particulars: cited from earlier work.
For assay [2], the system named is other genera of bacteria (Gram-positive, Gram-negative). Particulars: cited from earlier work.

`C[C@@H]1NC(=O)[C@@H](N)CNC(=O)[C@H](C2CCNC(=N)N2)NC(=O)/C(=C/NC(=O)Nc2cccc(-c3ccccc3)c2)NC(=O)[C@H](CN)NC1=O` (some centres unmarked) [Compound 73]: the “activity against MRSA” value in assay [1] is “active”. Besides, the “fold more active against Clostridium difficile than the corresponding capreomycin IB phenyl urea analogs” value with Clostridium difficile is 4 fold.

As to Capreomycin, in the assay on mycobacteria, the activity against mycobacteria entry is recorded as “potent activity”. Besides, in assay [2], the “activity against other genera of bacteria” value is reported as “little activity” and the “efficacy against most Gram-positive bacteria (Staphylococcus) or Gram-negative bacteria (Escherichia coli)” value is recorded as “not efficacious”.
